Experimental data from PubChem BioAssay (NCI).
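Grown in 96-well plates, cells were treated for 48 hours with each compound at five concentrations. Insufficient inhibition: endpoint recorded as highest concentration tested. GI50 marks 50% less growth. TGI: concentration producing complete growth inhibition.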

Tests used:
Experiment in all cases: inhibition of tumour cell growth, NCI panel, 48 h
[1] = tested on: RPMI-8226 leukemia
[2] = tested on: NCI-H226 lung
[3] = tested on: NCI/ADR-RES ovarian
[4] = tested on: COLO 205 colon
[5] = tested on: MDA-MB-435
[6] = tested on: NCI-H522 lung
[7] = tested on: HCT-116 colon
[8] = tested on: K-562 leukemia
[9] = tested on: U251 CNS

`CCOC(=O)c1ccc2[nH]c(-c3ccc(S(=O)(=O)F)cc3)cc(=O)c2c1` showed a TGI [1] greater than 100 µM, a TGI [2] greater than 100 µM and a TGI [3] greater than 100 µM. It also gave a TGI [4] greater than 100 µM, a TGI [5] greater than 100 µM and a TGI [6] of 39.4 µM. For the same molecule, the TGI [7] was 76.9 µM, the TGI [8] was greater than 100 µM and the TGI [9] was greater than 100 µM.
`CCCCC[C@H](O)/C=C/[C@@H]1[C@@H](C/C=C\CCCC(=O)O)[C@@H](O)C[C@H]1O` was tested, and the GI50 [1] was greater than 100 µM, the TGI [1] was greater than 100 µM and the GI50 [2] was greater than 100 µM. The TGI [2] was greater than 100 µM, the GI50 [3] was greater than 100 µM and the TGI [3] was greater than 100 µM. For the same molecule, the GI50 [4] was greater than 100 µM, the TGI [4] was greater than 100 µM and the GI50 [5] was greater than 100 µM. It also gave a TGI [5] greater than 100 µM, a GI50 [6] greater than 100 µM and a TGI [6] greater than 100 µM. For the same molecule, the GI50 [7] was greater than 100 µM, the TGI [7] was greater than 100 µM and the GI50 [8] was greater than 100 µM. For the same molecule, the TGI [8] was greater than 100 µM, the GI50 [9] was greater than 100 µM and the TGI [9] was greater than 100 µM.
For `Nc1c(C(=O)c2cccc(CCCN3CCOCC3)c2)cnn1-c1ccc(F)cc1`, the GI50 [1] was greater than 25 µM, the TGI [1] was greater than 25 µM and the GI50 [2] was greater than 25 µM. The TGI [2] was greater than 25 µM, the GI50 [3] was greater than 25 µM and the TGI [3] was greater than 25 µM. The GI50 [4] was greater than 25 µM, the TGI [4] was greater than 25 µM and the GI50 [5] was greater than 25 µM. The TGI [5] was greater than 25 µM, the GI50 [6] was greater than 25 µM and the TGI [6] was greater than 25 µM. It also gave a GI50 [7] greater than 25 µM, a TGI [7] greater than 25 µM and a GI50 [8] greater than 25 µM. It also gave a TGI [8] greater than 25 µM, a GI50 [9] greater than 25 µM and a TGI [9] greater than 25 µM.
For `COc1cc(C(=O)/C=C/c2c(C)n([O-])c3ccc(C)cc3[n+]2=O)cc(OC)c1OC`, the GI50 [1] was 2.87 µM, the TGI [1] was 17.6 µM and the GI50 [2] was 30.6 µM. It also gave a TGI [2] greater than 100 µM, a GI50 [3] of 8.47 µM and a TGI [3] greater than 70.6 µM. It also gave a GI50 [4] of 2 µM, a TGI [4] of 3.99 µM and a GI50 [5] of 6.47 µM. The TGI [5] was greater than 63.4 µM, the GI50 [6] was 0.741 µM and the TGI [6] was 2.29 µM. The GI50 [7] was 1.54 µM, the TGI [7] was 2.95 µM and the GI50 [8] was 2.8 µM. For the same molecule, the TGI [8] was greater than 24.7 µM, the GI50 [9] was 7.74 µM and the TGI [9] was 21 µM.
`NC(=O)NNCc1ccccc1` gave a TGI [1] greater than 100 µM, a TGI [2] greater than 100 µM and a TGI [3] greater than 100 µM. The TGI [4] was greater than 100 µM, the TGI [5] was greater than 100 µM and the TGI [6] was greater than 100 µM. For the same molecule, the TGI [7] was greater than 100 µM, the TGI [8] was greater than 100 µM and the TGI [9] was greater than 100 µM.
`Cc1cc2nc(C(C)C(=O)c3ccc(Cl)cc3)c(=O)[nH]c2cc1C` (stereo not drawn) showed a TGI [1] greater than 100 µM, a TGI [2] of 95.1 µM and a TGI [3] greater than 100 µM. It also gave a TGI [4] of 53.7 µM, a TGI [5] of 49.6 µM and a TGI [6] greater than 100 µM. The TGI [7] was greater than 100 µM, the TGI [8] was greater than 100 µM and the TGI [9] was greater than 100 µM.
Work on `O=[N+]([O-])c1ccc(S(=O)(=O)Cc2ccccc2)c([N+](=O)[O-])c1` yielded a TGI [1] of 5.78 µM, a TGI [2] of 43.3 µM and a TGI [3] greater than 51.8 µM. For the same molecule, the TGI [4] was 3.26 µM, the TGI [5] was 3.34 µM and the TGI [6] was 2.81 µM. The TGI [7] was 3.51 µM, the TGI [8] was greater than 100 µM and the TGI [9] was 4.91 µM.
`COc1cc(NS(C)(=O)=O)ccc1Nc1c2ccc([N+](=O)[O-])cc2nc2c(C)cccc12` was tested, and the GI50 [1] was 0.18 µM, the TGI [1] was 1.99 µM and the GI50 [2] was 0.338 µM. For the same molecule, the TGI [2] was 4.16 µM, the GI50 [3] was 6.95 µM and the TGI [3] was 35.1 µM. The GI50 [4] was 2.05 µM, the TGI [4] was 13.5 µM and the GI50 [5] was 1.67 µM. It also gave a TGI [5] of 15 µM, a GI50 [6] of 1.07 µM and a TGI [6] of 2.9 µM. It also gave a GI50 [7] of 0.361 µM, a TGI [7] of 10.7 µM and a GI50 [8] of 0.801 µM. The TGI [8] was 9.89 µM, the GI50 [9] was 0.214 µM and the TGI [9] was 11.2 µM.
